The values that follow come from patent publication US20060122185A1, “Bicyclic inhibitors of Rho kinase” (priority 2004, published 2006).

Chain of ROCK (Q13464 6-553): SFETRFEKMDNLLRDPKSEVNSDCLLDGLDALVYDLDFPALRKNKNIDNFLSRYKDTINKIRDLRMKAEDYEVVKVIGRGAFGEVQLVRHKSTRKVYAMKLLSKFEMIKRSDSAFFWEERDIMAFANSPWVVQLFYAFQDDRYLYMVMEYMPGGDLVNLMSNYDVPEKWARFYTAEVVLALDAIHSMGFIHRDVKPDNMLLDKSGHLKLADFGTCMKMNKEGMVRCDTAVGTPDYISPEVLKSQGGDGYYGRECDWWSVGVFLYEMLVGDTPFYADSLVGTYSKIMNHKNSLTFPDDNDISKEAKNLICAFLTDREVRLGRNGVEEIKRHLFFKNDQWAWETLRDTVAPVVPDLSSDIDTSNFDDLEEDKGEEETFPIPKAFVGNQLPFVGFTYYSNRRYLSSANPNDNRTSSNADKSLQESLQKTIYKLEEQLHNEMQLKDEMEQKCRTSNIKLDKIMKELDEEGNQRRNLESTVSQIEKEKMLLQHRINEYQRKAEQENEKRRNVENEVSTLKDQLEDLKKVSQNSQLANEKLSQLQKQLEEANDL
Chain of ROCK I (AA 6-553) (Q13464 6-553): as above

The target of the first test is ROCK (Homo sapiens, UniProt Q13464). Put plainly: ROCK radioactive enzyme assay (33P). It counts as biochemical. The following applies: 13 μM [γ-33P] ATP, 27 μM MBP, 5 nM ROCK, room temperature. As to the method:
Compounds are screened for their ability to inhibit ROCK using a standard radioactive enzyme assay. Assays are carried out in a solution containing 100 mM HEPES (pH 7.5), 10 mM MgCl2, 25 mM NaCl, 2 mM DTT and 1.5% DMSO. Final substrate concentrations in the assay are 13 μM [γ-^33P] ATP (25 mCi ^33P ATP/mmol ATP, Perkin Elmer, Cambridge, Mass./Sigma Chemicals, St Louis, Mo.) and 27 μM Myelin Basic Protein (MBP). Final enzyme concentration in the assay is 5 nM ROCK. Assays are carried out at room temperature. 1.5 μl of DMSO stock containing serial dilutions of the compound of the present invention (concentrations ranging from 10 μM to 2.6 nM) is placed in a 96 well plate. 50 μl of Solution 1 (100 mM HEPES (pH 7.5), 10 mM MgCl2, […] [γ-^33P] ATP) is added to the plate. The reaction is initiated by addition of 50 μl of Solution 2 (100 mM HEPES (pH 7.5), 10 mM MgCl2, 4 mM DTT, […] and 10 nM ROCK). After 2 hours the reaction is quenched with 50 μL of 30% trichloroacetic acid (TCA, Fisher) containing 9 mM ATP. Transfer of 140 μL of the quenched reaction to a glass fiber filter plate (Corning, Cat. No. 3511) is followed by washing 3 times with 5% TCA. 50 μL of Optima Gold scintillation fluid (Perkin Elmer) is added and the plates are counted on a Top Count (Perkin Elmer). After removing mean background values for all of the data points the data is fit using Prism software to obtain a Ki(app).
(§1) Table 3 depicts enzyme inhibition data (Ki) for certain exemplary compounds. Compound numbers in Table 3 correspond to those compounds depicted in Table 1.
Take `O=C(NCc1cccc(F)c1)c1cc(-c2n[nH]c3ncccc23)c[nH]1` [Compound 16]: the Ki is less than 500 nM.

Turning to `O=C(Cc1ccccc1)Nc1nc(-c2n[nH]c3ncccc23)cs1` [Compound 2], the Ki was less than 500 nM.

With `O=C(NCc1ccc2c(c1)OCO2)c1cc(-c2n[nH]c3ncccc23)c[nH]1` [Compound 15], the inhibition constant Ki is less than 500 nM.

For `O=C(NCc1ccc(F)cc1)c1cc(-c2n[nH]c3ncccc23)c[nH]1` [Compound 18], the inhibition constant Ki was less than 500 nM.

With `O=C(NCc1cccc(OC(F)(F)F)c1)c1cc(-c2n[nH]c3ncccc23)c[nH]1` [Compound 14], the inhibition constant Ki was less than 500 nM.

As for `CN(C)S(=O)(=O)c1cccc(CC(=O)Nc2cc(-c3n[nH]c4ncccc34)cs2)c1` [Compound 10, 2-(3-Dimethylsulfamoyl-phenyl)-N-[4-(1H-pyrazolo[3,4-b]pyridin-3-yl)-thiophen-2-yl]-acetamide], the Ki was less than 500 nM.

For the compound `CS(=O)(=O)Nc1ccc(F)c(CC(=O)Nc2cc(-c3n[nH]c4ncccc34)cs2)c1` [Compound 6, 2-(2-Fluoro-5-methanesulfonylamino-phenyl)-N-[4-(1H-pyrazolo[3,4-b]pyridin-3-yl)-thiophen-2-yl]-acetamide], the Ki is less than 500 nM.

`CS(=O)(=O)Nc1cccc(CNC(=O)c2cc(-c3n[nH]c4ncccc34)c[nH]2)c1` [Compound 11]: the Ki was less than 500 nM.

For the compound `CS(=O)(=O)Nc1ccc(F)c(CC(=O)Nc2cc(-c3n[nH]c4nccnc34)cs2)c1` [Compound 9, N-(4-(1H-pyrazolo[3,4-b]pyrazin-3-yl)thiophen-2-yl)-2-(5-methsulfonamido-2-fluorophenyl)acetamide], the Ki is less than 500 nM.

With `O=C(NCC1CCCCC1)c1cc(-c2n[nH]c3ncccc23)c[nH]1` [Compound 17], the Ki is less than 500 nM.

Regarding `CS(=O)(=O)Nc1cccc(CC(=O)Nc2nc(-c3n[nH]c4ncccc34)cs2)c1` [Compound 5], the Ki was less than 500 nM.

Take `CS(=O)(=O)Nc1cccc(CC(=O)Nc2cc(-c3n[nH]c4ncccc34)cs2)c1` [Compound 8, 2-(3-Methanesulfonylamino-phenyl)-N-[4-(1H-pyrazolo[3,4-b]pyridin-3-yl)-thiophen-2-yl]-acetamide]: the inhibition constant (Ki) is less than 500 nM.

For the compound `CCN(CC)S(=O)(=O)c1cccc(CC(=O)Nc2nc(-c3n[nH]c4ncccc34)cs2)c1` [Compound 4], the inhibition constant (Ki) was less than 500 nM.

In the case of `COc1cccc(CNC(=O)c2cc(-c3n[nH]c4ncccc34)c[nH]2)c1` [Compound 13], the Ki is less than 500 nM.

Turning to `O=C(Cc1cccc(OCCCC2CCNCC2)c1)Nc1cc(-c2n[nH]c3ncccc23)cs1` [Compound 7, 2-(3-(3-Piperidin-4-yl-propoxy)-phenyl)-N-[4-(1H-pyrazolo[3,4-b]pyridin-3-yl)-thiophen-2-yl]-acetamide], the Ki was less than 500 nM.

For the compound `COc1cccc(CC(=O)Nc2nc(-c3n[nH]c4ncccc34)cs2)c1` [Compound 3], the Ki was less than 500 nM.

As to `CS(=O)(=O)Nc1cccc(CC(=O)Nc2cc(-c3n[nH]c4nccnc34)cs2)c1` [Compound 20], the inhibition constant (Ki) is less than 500 nM.

Turning to `CC(CO)NC(=O)c1cc(-c2n[nH]c3ncccc23)c[nH]1` (stereo not shown) [Compound 12], the Ki was in the range of 500 to 5000 nM.

The next test concerns the target ROCK I (AA 6-553) (Homo sapiens, UniProt Q13464). The test can be described thus: ROCK I coupled enzyme assay (enzyme-linked). It counts as biochemical. The following applies: 45 μM ATP, 200 μM peptide, 45 nM ROCK I, 30° C. The method, then: Compounds are screened for their ability to inhibit ROCK I (AA 6-553) activity using a standard coupled enzyme system (Fox et al. Protein Sci. 7: 2249, 1998). Reactions are carried out in a solution containing 100 mM HEPES (pH 7.5), 10 mM MgCl2, 25 mM NaCl, 2 mM DTT and 1.5% DMSO. Final substrate concentrations in the assay are 45 μM ATP (Sigma Chemicals, St Louis, Mo.) and 200 μM peptide (American Peptide, Sunnyvale, Calif.). Reactions are carried out at 30° C. and 45 nM ROCK I. Final concentrations of the components of the coupled enzyme system are 2.5 mM phosphoenolpyruvate, 350 μM NADH, 30 μg/ml pyruvate kinase and 10 μg/ml lactate dehydrogenase.
as §1
Take `O=C(N[C@H](CO)c1ccccc1)c1cc(-c2n[nH]c3ncccc23)c[nH]1` [Compound 1]: the Ki is less than 500 nM.

One may read the Ki as a dissociation constant, usually derived from enzyme kinetics or from competition with a known ligand.
